The assay has as its target T1, FXR LBD, GST (Homo sapiens, UniProt Q96RI1).
T1 construct: FXR LBD, GST; purchased Invitrogen PV4834
T1 sequence (Q96RI1 262-486 limits assumed): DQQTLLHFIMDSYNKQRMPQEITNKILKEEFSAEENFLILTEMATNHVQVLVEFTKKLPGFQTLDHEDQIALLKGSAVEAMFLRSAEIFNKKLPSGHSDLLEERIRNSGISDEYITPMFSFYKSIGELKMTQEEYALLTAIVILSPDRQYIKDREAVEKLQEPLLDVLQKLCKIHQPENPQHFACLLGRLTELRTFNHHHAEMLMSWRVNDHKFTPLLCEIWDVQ
Kind of assay: FXR Binding Assay (TR-FRET, Fluorescein-SRC2-2 coactivator peptide). The settings on record: for Emax / Pct Effect (Emax %): % Activity relative to positive control; for Emax: read-out: Pct Effect (Emax %); for EC50: TR-FRET FXR LBD coactivator recruitment. On the procedure: The interaction between the present compounds and FXR are evaluated by Time-Resolved Fluorescence Resonance Energy Transfer (TR-FRET) competition assay. FRET describes a radiation-free energy transfer between two chromophores: a donor fluorophore in its excited state can transfer energy to an acceptor fluorophore in close proximity (typically <10 nm). In contrast to standard FRET, TR-FRET unites time-resolved fluorescence (TRF) and the FRET principle, TRF use a long-lifetime lanthanide chelate as the donor species, while lanthanide chelates are unique in that their excited-state lifetime can be on the order of a millisecond or longer. Suitable neighbors for FRET are known in the art and can be obtained.
The assay was performed in following steps: first, prepared a) 1 mM compounds (100×) in DMSO; b) reaction buffer containing 1× buffer G with 10 mM DTT; c) 4×FXR LBD (20 nM) in 1× chilled buffer G. Second, performed 3-fold serial dilution of 1 mM test compounds using DMSO from 1 mM, 10 doses in a 96-well plate (249944, Nunc). Then, used complete buffer G to dilute each 100× compounds serial dilution to 2×. Third, added 10 μl 2× compound serial dilution into 384-well plate (3677, Corning). Then, added 5 μl FXR LBD into the assay plate. Prepared a solution containing 2 μM fluorescein-SRC2-2 (4×) and 20 nM Tb anti-GST antibody (4×) in buffer G at room temperature and started the reaction by adding 5 μl the above solution into each well of the assay plate. Centrifuged the assay plates at 1000 g for 1 min and then incubated at room temperature for lhr protected from light. Finally, the plate was read at wavelengths of 520 nm and 495 nm on Envision 2104 plate reader (PerkinElmer).
A ratio (Ratio520 nm/495 nm−Ratiobackground) was calculated for each well. The activity ratio was calculated as follow: […]
Ratiopositive: The average ratio for the positive control across the plate.
Ratiovehicle: The average ratio for negative controls across the plate.
EC50 was calculated by fitting % Activity values and log of compound concentrations to nonlinear regression (dose response-variable slope) with GraphPad 5.0.
X: log of compound concentration.
For orientation: TR-FRET usually uses a lanthanide donor and a delayed reading to cut background.

In the case of `Cn1cc(C(=O)O)c2ccc(N3CCN(CCc4c(-c5ccccc5Cl)noc4C4CC4)CC3)cc21` [Example I9, 6-(4-(2-(3-(2-chlorophenyl)-5-cyclopropylisoxazol-4-yl)ethyl)piperazin-1-yl)-1-methyl-1H-indole-3-carboxylic Acid], the Emax was found to be 206% and the EC50 turned out to be 1220 nM.

In turn, `Cn1cc(C(=O)O)c2ccc(N3CCN(CCc4c(-c5c(F)cccc5F)noc4C4CC4)CC3)cc21` [Example I11, 6-(4-(2-(5-cyclopropyl-3-(2,6-difluorophenyl)isoxazol-4-yl)ethyl)piperazin-1-yl)-1-methyl-1H-indole-3-carboxylic Acid] came in with a half-maximal effective concentration (EC50) of 1640 nM.

For the compound `CC1CN(CCc2c(-c3c(Cl)cccc3Cl)noc2C2CC2)CCN1c1ccc(CC(=O)O)cc1` (stereo not drawn) [Example I13, 2-(4-(4-(2-(5-cyclopropyl-3-(2,6-dichlorophenyl)isoxazol-4-yl)ethyl)-2-methylpiperazin-1-yl)phenyl)acetic Acid], the Emax turned out to be 34.9% and the concentration for a half-maximal effect (EC50) was determined as 1530 nM.

For the compound `Cn1cc(C(=O)O)c2ccc(N3CCN(CCc4c(-c5ccc(Cl)cc5Cl)noc4C4CC4)CC3)cc21` [Example I16, 6-(4-(2-(5-cyclopropyl-3-(2,4-dichlorophenyl)isoxazol-4-yl)ethyl)piperazin-1-yl)-1-methyl-1H-indole-3-carboxylic Acid], the EC50 was > 10000 nM.

`Cn1cc(C(=O)O)c2ccc(N3CCN(CCc4c(-c5ccccc5F)noc4C4CC4)CC3)cc21` [Example I19, 6-(4-(2-(5-cyclopropyl-3-(2-fluorophenyl)isoxazol-4-yl)ethyl)piperazin-1-yl)-1-methyl-1H-indole-3-carboxylic Acid]: the Emax came out at 104% and the EC50 was 4360 nM.

Take `CC(Cc1c(-c2c(Cl)cccc2Cl)noc1C1CC1)N1CCN(c2ccc3c(C(=O)O)cn(C)c3c2)CC1` (stereo not drawn) [Example I23, 6-(4-(1-(5-cyclopropyl-3-(2,6-dichlorophenyl)isoxazol-4-yl)propan-2-yl)piperazin-1-yl)-1-methyl-1H-indole-3-carboxylic Acid]: the Emax is 35.7% and the EC50 stood at 1370 nM.

For the compound `Cn1cc(C(=O)O)c2ccc(N3C[C@H]4C[C@@H]3CN4CCc3c(-c4c(Cl)cccc4Cl)noc3C3CC3)cc21` [Example I28, 6-((1R,4R)-5-(2-(5-cyclopropyl-3-(2,6-dichlorophenyl)isoxazol-4-yl)ethyl)-2,5-diazabicyclo[2.2.1]heptan-2-yl)-1-methyl-1H-indole-3-carboxylic Acid], the maximal response (Emax) came to 132% and the EC50 came out at 1340 nM.

As to `Cn1cc(C(=O)O)c2ccc(N3CC4CC3CN4CCc3c(-c4c(Cl)cccc4Cl)noc3C3CC3)cc21` (stereo not drawn) [Example I29, 6-(5-(2-(5-cyclopropyl-3-(2,6-dichlorophenyl)isoxazol-4-yl)ethyl)-2,5-diazabicyclo[2.2.1]heptan-2-yl)-1-methyl-1H-indole-3-carboxylic Acid], the “Pct Effect (Emax %)” value is 68.08% and a half-maximal effect (EC50) was put at 3810 nM.

On to `O=C(O)c1cc(F)c2nc(N3C4CCC3CN(CCc3c(-c5c(Cl)cccc5Cl)noc3C3CC3)C4)sc2c1` [Example I31, 2-(3-(2-(5-cyclopropyl-3-(2,6-dichlorophenyl)isoxazol-4-yl)ethyl)-3,8-diazabicyclo[3.2.1]octan-8-yl)-4-fluorobenzo[d]thiazole-6-carboxylic Acid], for which the maximum response (Emax) turned out to be 45.1% and the concentration for a half-maximal effect (EC50) came to 41 nM.

For `O=C(O)c1cc(F)c2nc(N3C4CCC3CN(CCc3c(-c5ccccc5OC(F)(F)F)noc3C3CC3)C4)sc2c1` [Example I32, 2-(3-(2-(5-cyclopropyl-3-(2-(trifluoromethoxy)phenyl)isoxazol-4-yl)ethyl)-3,8-diazabicyclo[3.2.1]octan-8-yl)-4-fluorobenzo[d]thiazole-6-carboxylic Acid], the Emax amounted to 47.7% and the EC50 was determined as 129 nM.

Regarding `O=C(O)c1ccc2nc(N3C4CCC3CN(CCc3c(-c5c(Cl)cccc5Cl)noc3C3CC3)C4)sc2c1` [Example I33, 2-(3-(2-(5-cyclopropyl-3-(2,6-dichlorophenyl)isoxazol-4-yl)ethyl)-3,8-diazabicyclo[3.2.1]octan-8-yl)benzo[d]thiazole-6-carboxylic Acid], the Emax was found to be 43.3% and the EC50 turned out to be 97 nM.

For the compound `O=C(O)c1ccc2nc(N3C4CCC3CN(CCc3c(-c5ccccc5OC(F)(F)F)noc3C3CC3)C4)sc2c1` [Example I34, 2-(3-(2-(5-cyclopropyl-3-(2-(trifluoromethoxy)phenyl)isoxazol-4-yl)ethyl)-3,8-diazabicyclo[3.2.1]octan-8-yl)benzo[d]thiazole-6-carboxylic Acid], the maximal effect (Emax) was determined as 41.5% and the concentration giving a half-maximal response (EC50) turned out to be 236 nM.

Take `C[C@H]1CN(CCc2c(-c3c(Cl)cccc3Cl)noc2C2CC2)CCN1c1ccc2c(C(=O)O)cn(C)c2c1` [Example I39, (S)-6-(4-(2-(5-cyclopropyl-3-(2,6-dichlorophenyl)isoxazol-4-yl)ethyl)-2-methylpiperazin-1-yl)-1-methyl-1H-indole-3-carboxylic Acid]: the Emax amounted to 129% and a half-maximal response (EC50) required 150 nM.

Take `Cn1cc(C(=O)O)c2ccc(N3CC4CCC(C3)N4CCc3c(-c4c(Cl)cccc4Cl)noc3C3CC3)cc21` [Example I41, 6-(8-(2-(5-cyclopropyl-3-(2,6-dichlorophenyl)isoxazol-4-yl)ethyl)-3,8-diazabicyclo[3.2.1]octan-3-yl)-1-methyl-1H-indole-3-carboxylic Acid]: the maximal response (Emax) was found to be 158% and it took 200 nM to reach a half-maximal effect (EC50).

For the compound `C[C@@H]1CN(CCc2c(-c3c(Cl)cccc3Cl)noc2C2CC2)C[C@H](C)N1c1ccc2c(C(=O)O)cn(C)c2c1` [Example I43, 6-((2S,6R)-4-(2-(5-cyclopropyl-3-(2,6-dichlorophenyl)isoxazol-4-yl)ethyl)-2,6-dimethylpiperazin-1-yl)-1-methyl-1H-indole-3-carboxylic Acid], the Emax was 110% and the response was half-maximal at 1400 nM (EC50).

Take `C[C@@H]1CN(CCc2c(-c3c(Cl)cccc3Cl)noc2C2CC2)C[C@@H](C)N1c1ccc2c(C(=O)O)cn(C)c2c1` [Example I44, 6-((2R,6R)-4-(2-(5-cyclopropyl-3-(2,6-dichlorophenyl)isoxazol-4-yl)ethyl)-2,6-dimethylpiperazin-1-yl)-1-methyl-1H-indole-3-carboxylic Acid]: the maximum response (Emax) was determined as 73.5% and the midpoint of the response, the EC50, lay at 401 nM.

Consider `Cn1cc(C(=O)O)c2c(F)cc(N3CCN(CCc4c(-c5c(Cl)cccc5Cl)noc4C4CC4)CC3)cc21` [Example I46, 6-(4-(2-(5-cyclopropyl-3-(2,6-dichlorophenyl)isoxazol-4-yl)ethyl)piperazin-1-yl)-4-fluoro-1-methyl-1H-indole-3-carboxylic Acid], for which the maximum response (Emax) stood at 168% and the concentration giving a half-maximal response (EC50) is 149 nM.

Take `Cn1cc(C(=O)O)c2ccc(N3CC4CC3CN4CCc3c(-c4c(Cl)cccc4Cl)noc3C3CC3)cc21` (stereo not drawn) [Example I48, 6-(5-(2-(5-cyclopropyl-3-(2,6-dichlorophenyl)isoxazol-4-yl)ethyl)-2,5-diazabicyclo[2.2.1]heptan-2-yl)-1-methyl-1H-indole-3-carboxylic Acid]: the “Pct Effect (Emax %)” value is listed as 124.90% and the half-maximal effective concentration (EC50) turned out to be 1720 nM.

Consider `Cn1cc(C(=O)O)c2ccc(N3CC4CC(C3)N4CCc3c(-c4c(Cl)cccc4Cl)noc3C3CC3)cc21` [Example I49, 6-(6-(2-(5-cyclopropyl-3-(2,6-dichlorophenyl)isoxazol-4-yl)ethyl)-3,6-diazabicyclo[3.1.1]heptan-3-yl)-1-methyl-1H-indole-3-carboxylic Acid], for which the EC50 was > 10000 nM.

For the compound `CC1CN(CCc2c(-c3c(Cl)cccc3Cl)noc2C2CC2)CCN1c1ccc2nc(C(=O)O)ccc2c1` (stereo not drawn) [Example I51, 6-(4-(2-(5-cyclopropyl-3-(2,6-dichlorophenyl)isoxazol-4-yl)ethyl)-2-methylpiperazin-1-yl)quinoline-2-carboxylic Acid], the Emax stood at 96.5% and the EC50 came out at 74 nM.

For `CC1CN(c2ccc3nc(C(=O)O)ccc3c2)CCN1CCc1c(-c2c(Cl)cccc2Cl)noc1C1CC1` (stereo not drawn) [Example I52, 6-(4-(2-(5-cyclopropyl-3-(2,6-dichlorophenyl)isoxazol-4-yl)ethyl)-3-methylpiperazin-1-yl)quinoline-2-carboxylic Acid], the Emax is 121% and the concentration for a half-maximal effect (EC50) worked out at 209 nM.

Usually Emax stands for the maximal effect, on the per cent scale that the assay sets. As a reminder, the EC50 is the concentration needed to bring the measured effect to its halfway point.
